We go through nine compounds from ChEMBL document CHEMBL3046120, “Synthesis and root growth-inhibitory activity of 2- and 3-(haloacetylamino)-3-(2-furyl)propanoic acids” (2003).

The subject of the assay is Brassica rapa subsp. oleifera. Kind of assay: Herbicidal activity against Brassica rapa subsp. oleifera seedling assessed as root growth inhibition at 1 x10 ' -4 M measured after 7 days. The assay is classed as functional. The settings on record: 168 h, read-out: GI.
`O=C(O)CC(NC(=O)CCl)c1ccco1` (racemic): the inhibition of growth at 100 µM amounted to 55%.
For `O=C(CCl)NC(Cc1ccco1)C(=O)O` (racemic), the inhibition of growth at 100 µM was found to be 51%.
As to `NC(CC(=O)O)c1ccco1` (racemic), the inhibition of growth at 100 µM is 16%.
For `O=C(CF)NC(Cc1ccco1)C(=O)O` (racemic) the value was 90%.
Regarding `O=C(O)CC(NC(=O)CF)c1ccco1` (racemic), the inhibition of growth at 100 µM was 43%.
For the compound `CC(=O)NC(CC(=O)O)c1ccco1` (racemic), the inhibition of growth at 100 µM is 22%.
With `O=C(O)COc1ccc(Cl)cc1Cl` [2,4-DICHLOROPHENOXYACETIC ACID], the inhibition of growth at 100 µM was found to be 100%.
`NC(Cc1ccco1)C(=O)O` (racemic): the inhibition of growth at 100 µM turned out to be 7%.
With `CC(=O)NC(Cc1ccco1)C(=O)O` (racemic), the inhibition of growth at 100 µM is 19%.
